Consider five compounds from patent US20030135023A1, “Peptide structures useful for competitive modulation of dipeptidyl peptidase IV catalysis” (priority 2001, published 2003).

Where two headings read alike, the source gives them in different places. Square brackets hold non-standard residues; d marks the D form. Peptide text beside a SMILES is read from it. pY = N[C@@H](Cc1ccc(OP(=O)(O)O)cc1)C(=O)O; pS = N[C@@H](COP(=O)(O)O)C(=O)O; Cha = N[C@@H](CC1CCCCC1)C(=O)O; Tle = CC(C)(C)[C@H](N)C(=O)O

Assay [1] concerns the target T1, purified porcine DP IV (Sus scrofa, UniProt P22411). Kind of assay: Determination of Ki-values, Gly-Pro-pNA cleavage by DP IV. Particulars: Gly-Pro-pNA 0.05-0.4 mM. Format: biochemical. As to the method: (§1) 100 μl inhibitor stock solution were mixed with 100 μl buffer (HEPES pH 7.6) and 50 μl substrate (Gly-Pro-pNA, final concentration 0.4 mM) and preincubated at 30° C. Reaction was started by addition of 20 μl purified porcine DP IV. Formation of the product pNA was measured at 405 nm over 10 min using the HTS 7000 Plus plate reader (Perkin Elmer) and slopes were calculated. The final inhibitor concentrations ranged between 1 mM and 30 nM.
Calculations were performed using the GraFit Software.

Assay [2] deals with T2, PEPT2 (Homo sapiens, UniProt Q16348).
T2 construct: expressed in transfected cells; host or cells: transgenic yeast cells
T2 sequence (Q16348 1-729): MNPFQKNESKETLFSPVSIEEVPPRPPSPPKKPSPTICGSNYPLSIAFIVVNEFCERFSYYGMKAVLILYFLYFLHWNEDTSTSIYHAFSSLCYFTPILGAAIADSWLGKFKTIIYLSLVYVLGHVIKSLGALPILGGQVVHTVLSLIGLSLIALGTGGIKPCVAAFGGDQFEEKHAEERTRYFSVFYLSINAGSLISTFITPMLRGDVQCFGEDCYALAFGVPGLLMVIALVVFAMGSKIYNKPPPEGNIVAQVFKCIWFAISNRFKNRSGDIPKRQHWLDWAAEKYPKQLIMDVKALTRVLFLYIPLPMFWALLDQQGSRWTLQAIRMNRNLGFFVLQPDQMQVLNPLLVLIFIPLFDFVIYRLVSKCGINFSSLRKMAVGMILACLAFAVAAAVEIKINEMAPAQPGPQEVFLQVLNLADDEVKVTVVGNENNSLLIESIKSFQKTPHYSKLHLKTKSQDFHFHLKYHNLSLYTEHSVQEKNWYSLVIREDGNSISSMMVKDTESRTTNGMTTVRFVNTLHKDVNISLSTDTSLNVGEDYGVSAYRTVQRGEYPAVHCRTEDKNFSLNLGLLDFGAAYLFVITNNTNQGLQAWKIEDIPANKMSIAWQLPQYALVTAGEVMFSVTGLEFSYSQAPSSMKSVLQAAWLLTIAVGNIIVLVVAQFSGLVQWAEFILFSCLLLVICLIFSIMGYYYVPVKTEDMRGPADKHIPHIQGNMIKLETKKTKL
Kind of assay: Electrophysiological analysis of transport currents in Xenopus oocytes expressing PEPT2. Particulars: transport current in Xenopus oocytes relative to 5 mM Gly-Gln. Format: cell-based, mammalian. The text has this: (§2) For the analysis o the interaction of the inhibitors of prolyl-specific proteases with the mammalian peptide transporters two assay systems were used. First, all test compounds were submitted to the competition assay with transgenic yeast cells to determine the dose-dependent displacement (EC50 values) of the radiolabeled tracer dipepitde from the substrate binding site. […] As the level of functional expression varies in oocytes, each test compound was compared in the same oocyte with the current elicited by 5 mM of the dipeptide glycyl-L-glutamine (Gly-Gln). Currents of test compounds are therefore given relative to that by Gly-Gln as %I Gly-Gin, expressed as residual uptake in table 10.

In assay [3] the target is T3, PEPT1 (Homo sapiens, UniProt P46059).
T3 construct: expressed in transfected cells; host or cells: transgenic yeast cells
T3 sequence (P46059 1-708): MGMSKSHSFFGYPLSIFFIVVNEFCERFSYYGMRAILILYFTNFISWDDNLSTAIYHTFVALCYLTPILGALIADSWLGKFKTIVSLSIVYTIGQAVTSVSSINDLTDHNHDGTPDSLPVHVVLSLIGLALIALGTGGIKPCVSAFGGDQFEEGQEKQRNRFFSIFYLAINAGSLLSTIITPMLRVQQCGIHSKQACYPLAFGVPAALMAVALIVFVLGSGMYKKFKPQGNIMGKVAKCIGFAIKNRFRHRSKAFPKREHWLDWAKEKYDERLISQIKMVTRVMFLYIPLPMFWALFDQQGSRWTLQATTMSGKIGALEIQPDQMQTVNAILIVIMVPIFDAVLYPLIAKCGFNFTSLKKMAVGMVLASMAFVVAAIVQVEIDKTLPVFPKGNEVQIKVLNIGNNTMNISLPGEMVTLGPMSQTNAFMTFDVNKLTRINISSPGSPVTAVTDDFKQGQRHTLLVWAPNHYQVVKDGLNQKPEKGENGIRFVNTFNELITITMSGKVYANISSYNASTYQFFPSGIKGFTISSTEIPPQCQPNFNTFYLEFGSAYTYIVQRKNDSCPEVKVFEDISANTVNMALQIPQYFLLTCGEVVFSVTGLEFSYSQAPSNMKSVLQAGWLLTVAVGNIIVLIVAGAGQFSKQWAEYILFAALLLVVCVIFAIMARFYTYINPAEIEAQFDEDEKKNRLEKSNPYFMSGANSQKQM
In words: Electrophysiological analysis of transport currents in Xenopus oocytes expressing PEPT1. Format: cell-based, mammalian. Particulars: transport current in Xenopus oocytes relative to 5 mM Gly-Gln.
Description: as §2

The target of assay [4] is T3, PEPT1. Kind of assay: Competition assay with transgenic yeast cells, displacement of radiolabeled tracer dipeptide, PEPT1. Format: binding, mammalian.
Description: as §2

Assay [5] concerns the target T1, purified porcine DP IV. Kind of assay: Determination of IC50-values, Gly-Pro-pNA cleavage by DP IV. Format: biochemical. As to the method: as §1
For calculation of IC50-values GraFit 4.0.13 (Erithacus Software) was used.

In assay [6] the target is T2, PEPT2. In words: Competition assay with transgenic yeast cells, displacement of radiolabeled tracer dipeptide, PEPT2. Format: binding, mammalian.
Description: as §2

Assay [7] deals with T4, plasma DP IV (Rattus norvegicus, UniProt P14740).
T4 construct: The assay mixture consisted of 80 μl reagent and 20 μl plasma; from tissue; host or cells: plasma of Wistar rats
T4 sequence (P14740 37-767 limits assumed): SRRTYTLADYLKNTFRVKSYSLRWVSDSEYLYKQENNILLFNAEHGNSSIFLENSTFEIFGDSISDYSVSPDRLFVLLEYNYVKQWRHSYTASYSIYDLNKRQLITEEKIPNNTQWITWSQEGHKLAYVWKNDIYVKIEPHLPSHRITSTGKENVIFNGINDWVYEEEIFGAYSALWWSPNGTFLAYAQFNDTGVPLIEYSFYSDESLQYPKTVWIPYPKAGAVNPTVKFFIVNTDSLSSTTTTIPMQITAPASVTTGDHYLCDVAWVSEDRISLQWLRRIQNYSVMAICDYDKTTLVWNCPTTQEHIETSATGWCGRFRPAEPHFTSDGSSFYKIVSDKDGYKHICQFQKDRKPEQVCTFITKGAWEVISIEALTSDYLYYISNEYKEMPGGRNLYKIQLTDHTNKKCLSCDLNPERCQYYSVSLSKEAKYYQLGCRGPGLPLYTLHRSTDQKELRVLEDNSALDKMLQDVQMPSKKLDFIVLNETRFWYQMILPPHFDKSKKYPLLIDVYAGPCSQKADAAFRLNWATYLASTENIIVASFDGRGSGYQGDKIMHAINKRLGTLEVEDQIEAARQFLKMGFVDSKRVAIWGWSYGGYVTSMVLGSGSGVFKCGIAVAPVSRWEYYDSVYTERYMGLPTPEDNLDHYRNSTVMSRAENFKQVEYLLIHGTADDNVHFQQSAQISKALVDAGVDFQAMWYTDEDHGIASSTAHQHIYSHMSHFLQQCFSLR
In words: Plasma DP IV activity after intravasal and oral administration in Wistar rats. The format is in vivo. As to the method: Rats with intact catheter function were given the test substances intravasal (intraarterial) or oral, respectively, in random order (N=3 Wistar rats in each group). As positive control, […]. isoleucine thiazolidine*fumarate were administered intravasal.
After overnight fasting, 100 μl samples of heparinized arterial blood were collected at −30, −5, and 0 min into ice-cooled Eppendorf tubes (see below). The test substances were dissolved freshly in 1.0 ml saline (0.154 mol/l) and were given at 0 min either oral via a feeding tube ([…], 75 mm; Fine Science Tools, Heidelberg, Germany) or intravasal. For the intravasal route, the catheter was immediately flushed with 30 μl saline and an additional 1 ml of saline was given orally via the feeding tube.
Arterial blood samples were taken thereafter at 5, 10 (only in a limited number of experiments), 20, 40, 60 and 120 min from the carotid catheter of the conscious unrestrained rats and were always given into ice cooled Eppendorf tubes (Eppendorf-Netheler-Hinz, Hamburg, Germany) filled with 10 μl 1 M citrate buffer pH 3.0 for prevention of further hydrolysis of tripeptides by plasma DP IV activity. Eppendorf tubes were centrifuged immediately (12000 rpm for 2 min, Hettich Zentrifuge EBA 12, Tuttlingen; Germany): The plasma fractions were store on ice until analysis or were deeply frozen at −20 ° C. until analysis.
Plasma DP IV activity: The assay mixture consisted of 80 μl reagent and 20 μl plasma. Kinetic measurements of the formation of the yellow product 4-nitroaniline were performed at 390 nm for 1 min at 30° C. after 2 min pre-incubation at the same temperature. The activity was expressed as arbitrary units [AU] and DP IV activity [mU/ml].
The absolute values of plasma DP IV activity, the relative change of plasma DP IV activity and the time and extent of maximal inhibition were calculated. Data presentation included the presentation of area under the curve (AUC), which was used for evaluation of extent of inhibition of plasma DP IV activity during the two hours of observation. AUC was calculated using the trapezoidal rule.
To compare relative changes of parameters under the conditions of different initial values of DP IV activity an uniform standardised mean (values) was set up at the beginning of the test (see Figures and Tables).
Statistical evaluations were performed with Microsoft Excel® 97. All variables are presented as mean and standard deviation (SD). Treatment groups were compared by Student's t-test, within-group changes by paired t-test. Two-tailed values of p<0.05 were considered significant.

[8] abbreviates: displacement of radiolabeled tracer dipeptide, transgenic yeast cells, read-out: PEPT1 EC50.
Where [9] appears, read: Gly-Pro-pNA 0.4 mM, HEPES pH 7.6, 30° C., read-out: IC50.
Where [10] appears, read: displacement of radiolabeled tracer dipeptide, transgenic yeast cells, read-out: PEPT2 EC50.

T1 sequence (P22411 whole entry): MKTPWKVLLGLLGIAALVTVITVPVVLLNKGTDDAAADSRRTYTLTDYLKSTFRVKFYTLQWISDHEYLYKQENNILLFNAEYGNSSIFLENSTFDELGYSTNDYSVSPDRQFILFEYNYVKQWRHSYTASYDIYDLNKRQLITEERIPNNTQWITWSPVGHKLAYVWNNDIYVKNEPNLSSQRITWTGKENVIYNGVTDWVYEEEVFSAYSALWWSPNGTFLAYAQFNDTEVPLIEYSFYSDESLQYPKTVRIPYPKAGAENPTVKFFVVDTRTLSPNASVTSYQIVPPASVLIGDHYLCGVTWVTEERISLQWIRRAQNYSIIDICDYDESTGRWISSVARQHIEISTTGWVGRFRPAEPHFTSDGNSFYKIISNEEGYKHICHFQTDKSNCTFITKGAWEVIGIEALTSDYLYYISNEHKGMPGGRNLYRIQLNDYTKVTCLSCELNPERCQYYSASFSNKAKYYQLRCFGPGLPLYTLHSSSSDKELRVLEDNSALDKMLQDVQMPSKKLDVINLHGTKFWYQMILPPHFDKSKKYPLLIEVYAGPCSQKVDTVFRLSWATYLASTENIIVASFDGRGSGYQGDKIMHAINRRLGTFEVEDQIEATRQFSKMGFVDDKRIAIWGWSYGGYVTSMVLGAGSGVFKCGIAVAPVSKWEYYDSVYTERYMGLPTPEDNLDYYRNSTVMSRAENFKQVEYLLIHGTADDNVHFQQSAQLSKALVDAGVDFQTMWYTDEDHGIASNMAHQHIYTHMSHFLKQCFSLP

For orientation: Ki means the equilibrium dissociation constant of an inhibitor or competing ligand from its target. By EC50 is commonly meant the concentration at which the effect is half-maximal. The term IC50 denotes the concentration needed to halve the response being measured. For `CC[C@H](C)[C@H](NC(=O)[C@@H]1CCCN1C(=O)[C@@H](N)CC1CCCCC1)C(=O)O` [Cha-Pro-Ile] (H-[Cha]-Pro-Ile-OH; N-terminus and C-terminus assumed), the Ki in assay [1] amounted to 5.99 µM. Further, the “PEPT2 Residual uptake % IGly-Gln” value in assay [2] turned out to be 100 % IGly-Gln. The “PEPT1 Residual uptake % IGly-Gln” value in assay [3] is given as 90 % IGly-Gln. In addition, the results for the EC50 in assay [4] (setting [8]) and in assay [6] (setting [10]) were 141 ± 9 µM and 124 ± 1 µM, respectively. Further, the IC50 in assay [5] (setting [9]) worked out at 20.3 µM.

`CC[C@H](C)[C@H](NC(=O)[C@@H]1CCCN1C(=O)[C@@H](N)COP(=O)(O)O)C(=O)O` [Ser(P)-Pro-Ile] (H-[pS]-Pro-Ile-OH; N-terminus and C-terminus assumed): in assay [2], the “PEPT2 Residual uptake % IGly-Gln” value is 0 % IGly-Gln. For the same compound, the “PEPT1 Residual uptake % IGly-Gln” value in assay [3] turned out to be 0 % IGly-Gln. In addition, the values for the EC50 in assay [4] (setting [8]) and in assay [6] (setting [10]) were 4100 ± 1300 µM and 4900 ± 1090 µM, respectively. For the same compound, the IC50 in assay [5] (setting [9]) was found to be 12000 µM.

A word on the inhibition: it is the change of the read-out against control, counted positive when it falls. For the compound `CC[C@H](C)[C@H](NC(=O)[C@@H]1CCCN1C(=O)[C@@H](N)Cc1ccc(OP(=O)(O)O)cc1)C(=O)O` [Tyr(P)-Pro-Ile] (H-[pY]-Pro-Ile-OH; N-terminus and C-terminus assumed), in assay [2], the “PEPT2 Residual uptake % IGly-Gln” value was found to be 0 % IGly-Gln. For the same compound, the “PEPT1 Residual uptake % IGly-Gln” value in assay [3] came to 0 % IGly-Gln. Further, the results for the EC50 in assay [4] and in assay [6] were 902 ± 58 µM and 390 ± 17 µM, respectively. In addition, the “DPIV inhibition at tmax, p.o.” value in assay [7] (Wistar rats, p.o., 100 mg/kg) is reported as “no inhibition”. The inhibition at 100 mg/kg in assay [7] (rat, iv, read-out: DPIV inhibition at tmax, i.v.) came to 37%. 1770 µM corresponded to half-maximal inhibition in assay [5] (IC50).

Consider `CC[C@@H](C)[C@@H](NC(=O)[C@@H]1CCCN1C(=O)[C@@H](N)C(C)(C)C)C(=O)O` [t-butyl-Gly-Pro-D-Ile] (H-[Tle]-Pro-[dI]-OH; N-terminus and C-terminus assumed), for which, in assay [2], the “PEPT2 Residual uptake % IGly-Gln” value was 0 % IGly-Gln. In assay [3], the “PEPT1 Residual uptake % IGly-Gln” value turned out to be 0 % IGly-Gln. Also, the EC50 was 10600 ± 64 µM in assay [4] (setting [8]) and 2300 ± 1120 µM in assay [6] (setting [10]).

For `CC(C)[C@@H](NC(=O)[C@@H]1CCCN1C(=O)[C@@H](N)C(C)(C)C)C(=O)O` [t-butyl-Gly-Pro-D-Val] (H-[Tle]-Pro-[dV]-OH; N-terminus and C-terminus assumed), the inhibition constant (Ki) in assay [1] turned out to be 26.5 µM. Further, the “PEPT2 Residual uptake % IGly-Gln” value in assay [2] was 0 % IGly-Gln. The “PEPT1 Residual uptake % IGly-Gln” value in assay [3] is 0 % IGly-Gln. Besides, the EC50 was found to be 11100 ± 2800 µM in assay [4] (setting [8]) and 1500 ± 240 µM in assay [6] (setting [10]). In addition, the IC50 in assay [5] (setting [9]) turned out to be 112 µM.
